Experiments:
[1] = test system: Staphylococcus aureus (ATCC 19213); experiment: Agar diffusion method (inhibition zone); type: cell-based; set-up: key to Inhibition zone after 4 days of incubation (symbol): — (*): After 4 days of incubation, the bacteria grown up in the inhibition zone initially formed; conditions: S. aureus; for Average diameters of inhibition zones, after 24 hours of incubation: 100 μl in 6 mm well, 37° C.; for Inhibition zone after 4 days of incubation (symbol): free oils
Procedure: (§1) This assay was conducted with the limonene and vanillin microcapsules suspensions after applying the washing procedure described previously. Moreover, the free active agents were also tested separately (not incorporated in microcapsules). Staphylococcus aureus (ATCC 19213) and Escherichia coli (ATCC 10536) were used as representatives for Gram positive and Gram negative bacteria, respectively. The bacterial inoculums were prepared, under aseptic conditions, by transferring 4 isolated colonies of each type to individual test tubes containing nutrient broth and then incubated at 37° C. for 24 hours. The inoculums were then diluted by sterilized Ringer solution to a concentration of 0.5 McFarland turbidity (concentration of 1.5-3.0×10^8 CFU/ml). The concentration of the bacteria dilutions, also ascertained through UV spectrophotometry at 625 nm, was 0.0938 for the S. aureus, and 0.0940 for the E. coli. The bacterial solutions were then inoculated on the surface of Mueller Hinton Agar plates, using sterilized cotton swabs, and thereafter allowed to dry. Then, a well of 6 mm diameter was made in the center of each inoculated plate; the plug was removed, and filled with 100 μl of the microcapsules suspension. The limonene oil was diluted in dimethyl sulfoxide (DMSO) (7:3 ratio), and the vanillin dissolved in corn oil (0.03 g vanillin in 1 g of oil). The plates were incubated at 37° C. for 24 h. After this time period, the diameter of the inhibition zone was measured and incubation maintained for more 4 days in order to evaluate further changes in the inhibition zone. The clear zone formed, after incubation, around each hole (inhibition halo), indicates antimicrobial activity and its diameter is a measure of the inhibitory effect. All of the tests were done in duplicates.

[2] = test system: Escherichia coli (ATCC 10536); experiment: Agar diffusion method (inhibition zone); type: cell-based; set-up: key to Inhibition zone after 4 days of incubation (symbol): — (*): After 4 days of incubation, the bacteria grown up in the inhibition zone initially formed; conditions: E. coli; for Average diameters of inhibition zones, after 24 hours of incubation: 100 μl in 6 mm well, 37° C.; for Inhibition zone after 4 days of incubation (symbol): free oils
Procedure: as §1

Structure (SMILES): COc1cc(C=O)ccc1O [Vanillin in corn oil, Vanillin]
- Average diameters of inhibition zones, after 24 hours of incubation [1]: 1.00 ± 0.20 cm
- Inhibition zone after 4 days of incubation (symbol) [1]: — (*)
- Average diameters of inhibition zones, after 24 hours of incubation [2]: 0.95 ± 0.32 cm
- Inhibition zone after 4 days of incubation (symbol) [2]: — (*)

Structure (SMILES): C=C(C)[C@H]1CC=C(C)CC1 [Limonene in DMSO, Limonene]
- Average diameters of inhibition zones, after 24 hours of incubation [1]: 3.30 ± 0.18 cm
- Inhibition zone after 4 days of incubation (symbol) [1]: — (*)
- Average diameters of inhibition zones, after 24 hours of incubation [2]: 3.30 ± 0.31 cm
- Inhibition zone after 4 days of incubation (symbol) [2]: — (*)
